US8791158B2, “Methods of treating meibomian gland dysfunction” (GTX, Inc., priority 2010, dated 2014)
Where two headings read alike, the source gives them in different places.

Columns and labels:
[1] = Pharmacokinetic analysis of rabbit plasma after topical dosing, Example 5; assay type: in vivo; conditions: for Amount of drug absorbed into systemic circulation at lower doses compared to exposure at 2.5 mg/kg: lower topical doses vs 2.5 mg/kg (Table 6); for AUC: rabbit, plasma, topical or ocular, day 11, read-out: Systemic AUC
Protocol: Immediately after recovery from anesthesia, the animals were dosed with the appropriate test articles as indicated above. Drug dosing was performed once daily for 14 d. Blood samples were collected on day 11 of dosing at 0, 30, 60, 120, 240 and 1440 minutes post administration and to plasma separated for LCMS analysis of parent drug concentrations. Tears were collected using Schirmer tear strips (Alcon, Tex.) on day 0 before surgery and 24 hours after the last administration of drug (day 15). The tears were stored at −80° C. until shipment for lipid analysis. Lipids were hydrolyzed, extracted from the Schirmer strips, derivatized, and subjected to GC-FID to evaluate the lipid composition. The samples were evaluated for the presence of 28 saturated and unsaturated fatty acids that included methyl caprate (C10:0), methyl laurate (C12:0), methyl 11-dodecenoate (C12:1), methyl myri state (C14:0), methyl myristoleate (C14:1), methyl palmitate (C16:0), methyl palmitoleate (C16:1), methyl stearate (C18:0), methyl oleate (C18:1), methyl vaccenate (C18:1), methyl linoleate (C18:2), methyl gamma linoleate (C18:3), methyl linoleate (C18:3), methyl arachidate (C20:0), methyl 11-eicosenoate (C20:1), methyl 11,14 eicosadinoate (C20:2), methyl 8,11,14 eicosatrienoate (C20:3), methyl eicosapentaenoate (C20:5), methyl behenate (C22:0), methyl erucate (C22:1), methyl 13,16 docosaenoate (C22:2), methyl docosatetraenoate (C22:4), methyl docosapentaenoate (C22:5), methyl docosahexaenoate (C22:6), methyl lignocerate and (C24:0), methyl nervonate (C24:1). Area under the curve for each individual peak was determined using the GC ChemStation software. To normalize for the tear content, the lipid composition was expressed as a ratio of the lipid that was most affected by castration (palmitate) to one which remained relatively constant (stearate).
Plasma samples collected after dosing were analyzed using an LCMS/MS method. Briefly, plasma samples were prepared by protein precipitation extraction. (S)—N-(4-Cyano-3-(trifluoromethyl)phenyl)-3-(4-chlorophenoxy)-2-hydroxy-2-methylpropanamide was used as internal standard. The analysis of Compound 1 and Compound 2 was performed using an LC-MS/MS system consisting of an Agilent 1100 HPLC with an MDS/Sciex 4000 Q-Trap™ mass spectrometer. The separation was achieved using a C18 analytical column (Alltima™, 2.1×100 mm, 3 μm) protected by a C18 guard column (SecurityGuard™ 4.0×2.0 mm ID, Phenomenex). Mobile phase consisted of 60% acetonitrile, 40% water and 0.1% formic acid. Mobile phase was delivered at a flow rate of 0.3 mL/min Multiple reaction monitoring (MRM) scans were performed using curtain gas and a source temperature of 500° C. Molecular ions were formed using an ion spray voltage of −4500 V. Product ions were formed in nitrogen gas at a declustering potential of −55 V (Compound 1), −64 V (Compound 2), and −78 V (Internal standard) and collision energy of −24.0 V (Compound 1, m/z 388.0→117.9), −26.0 V (Compound 2, m/z 406.1→135.9), and −22.4 V (Internal standard, m/z 396.9→241.0). The plasma concentration—time data were analyzed by non-compartmental methods using WinNonlin (Version 3.1, Pharsight Corporation, Mountain View, Calif., USA). The area under the plasma concentration—time curve from time zero to infinity (AUC) was calculated by the trapezoidal rule with extrapolation to time infinity.
Systemic exposures after topical administration of the blood was determined in peripheral blood samples obtained at 30, 60, […], 240 and 1440 minutes after drug administration on day 11 of the study.

[2] = system: acute, orchiectomized (ORX) rabbit model; test: Tear fatty acid composition (palmitate:stearate ratio) after Compound 2 or TP, Example 3; assay type: in vivo; conditions: ORX rabbits; for Tear palmitate:stearate ratio after 4 week washout: then untreated 4 weeks
From the text: The goal of this study was to compare the effect of Compound 2 to testosterone propionate (TP) on tear composition in an acute, orchiectomized (ORX) rabbit model.
Fifteen New Zealand white rabbits weighing approximately 3 lbs were allowed to acclimate for 4 weeks before the start of the study. Animals were weighed on day 0 of the study, randomized according to body weight and allotted to the following dose groups:
Pre-dose tear and blood samples were collected. Animals from groups 2-5 were to premedicated with glycopyrrolate (0.02 mg/kg) and then anesthesia was induced with a combination of ketamine (15 mg/kg): medetomidine (0.25 mg/kg).
Anesthesia was maintained with isoflurane (1 liter/hr). Orchiectomy was performed using a scrotal incision. Animals were revived from anesthesia using atipamezole (1 mg/kg) SQ. Analgesia was provided with buprenorphine (0.05 mg/kg) Immediately after the animals had recovered from anesthesia, they received their first dose with the appropriate test articles as indicated above.
Drug dosing was done once daily for 14 days. Blood was collected at 60 minutes post administration of the last dose of drug and plasma separated for HPLC analysis of parent drug concentrations.
Tears were collected using Schirmer tear strips (Alcon, Tex.) on day 0 before surgery, 24 hours after the last administration of drug (day 15) and also at 42 days (6 weeks after start of study). The tears were stored at −80° C. prior to lipid analysis.
Lipids were hydrolyzed, extracted from the Schirmer strips, derivatized, and subjected to gas chromatography with flame ionization detector (GCFID) to evaluate the lipid composition.
The samples were evaluated for the presence of 28 saturated and unsaturated fatty acids that included methyl caprate (C10:0), methyl laurate (C12:0), methyl 11-dodecenoate (C12:1), methyl myristate (C14:0), methyl myristoleate (C14:1), methyl palmitate (C16:0), methyl palmitoleate (C16:1), methyl stearate (C18:0), methyl oleate (C18:1), methyl vaccenate (C18:1), methyl linoleate (C18:2), methyl gamma linoleate (C18:3), methyl linoleate (C18:3), methyl arachidate (C20:0), methyl 11-eicosenoate (C20:1), methyl 11,14 eicosadinoate (C20:2), methyl 8,11,14 eicosatrienoate (C20:3), methyl eicosapentaenoate (C20:5), methyl behenate (C22:0), methyl erucate (C22:1), methyl 13,16 docosaenoate (C22:2), methyl docosatetraenoate (C22:4), methyl docosapentaenoate (C22:5), methyl docosahexaenoate (C22:6), methyl lignocerate (C24:0), and methyl nervonate (C24:1).
The area under the curve for each individual peak was determined using GC ChemStation software. […] These samples were then washed with a saturated solution of NaCl+0.1% formic acid (FA). […] These samples were all in the predose tear group. Two more samples from the predose group and one sample from Vehicle Intact treated group had small but clear and well to separated peaks that were included in the analysis.
To normalize for the tear content, the lipid composition was expressed as a ratio of the lipid that was most affected by castration (palmitate) to one which remained relatively constant (stearate). Blood was also collected on day 15 (24 hours after last drug administration) of the study, plasma separated and analyzed for Compound 2.
The last dose of drug or vehicle was administered on day 15 of the study Animals were left untreated for 4 weeks (washout period) before tear samples were collected again on Schirmer tear strips and analyzed as indicated above.

| SMILES | Amount of drug absorbed into systemic circulation at lower doses compared to exposure at 2.5 mg/kg [1] | AUC ([1]; 0.625 mg/kg, topical 0.625 mpk) | AUC ([1]; 1.25 mg/kg, topical 1.25 mpk) | Increase of tear palmitate:stearate ratio relative to intact animals ([2]; 2.5 mg/kg, 14 days) | Tear palmitate:stearate ratio after 4 week washout ([2]; SQ 2.5 mg/kg for two weeks) | Tear palmitate:stearate ratio after 4 week washout ([2]; topical 2.5 mg/kg for two weeks) |
| --- | --- | --- | --- | --- | --- | --- |
| C[C@](O)(COc1ccc(C#N)cc1)C(=O)Nc1ccc(C#N)c(C(F)(F)F)c1 [Compound 1, (S)—N-(4-Cyano-3-(trifluoromethyl)phenyl)-3-(4-cyanophenoxy)-2-hydroxy-2-methylpropanamide] | ⅛^th | 2.87 µM·h | 3.99 µM·h | – | – | – |
| C[C@](O)(COc1ccc(C#N)c(F)c1)C(=O)Nc1ccc(C#N)c(C(F)(F)F)c1 [Compound 2, (S)—N-(4-cyano-3-(trifluoromethyl)phenyl)-3-(4-cyano-3-fluorophenoxy)-2-hydroxy-2-methylpropanamide] | ¼^th | 3.2 µM·h | 6.92 µM·h | two times that of intact animals | 1.47±0.172 | 1.66±0.426 |
